# Assay results published in patent publication US20250161282A1, “PHARMACEUTICAL PYRIDYL COMPOSITIONS FOR TREATING AND PREVENTING DELAYED GRAFT FUNCTION” (Unicycive Therapeutics, Inc., priority 2023, published 2025).
# Structures can show the parent of a compound that is named as a salt. Where two headings read alike, the source gives them in different places.
# Tests used:
# [1] = Phase I study Part 1, single ascending doses (SAD), oral fasted
# Description: (§1) In this Phase I study, the safety and tolerability of single ascending doses (SAD) of Compound 8 was administered to male and female subjects. The study was a single centre, double-blinded, placebo-controlled, randomized single ascending doses (SAD) and multiple ascending doses (MAD) study in healthy male and female subjects of non-childbearing potential.
# (§2) Part 1 was a double-blinded, randomized, placebo-controlled, SAD study, including approximately 32 subjects in 4 cohorts of 8 subjects each (randomized to a ratio of 6 active and 2 placebo per cohort). The subjects received the regimens presented in Table A. The route of administration was oral and fasted.
# (§3) Subjects received a single dose of Compound 8 Capsule or placebo in the morning following an overnight fast. For Regimen E, Period 2, cohort SAD 3 were readmitted to the clinical unit. There was a minimum 7-day washout between dosing occasions for Regimen C and Regimen E. Blood samples were collected at regular intervals for safety and PK analysis from Day −1 to discharge from the clinical unit.
# (§4) In Part 1 of the study, subjects received a single oral doses of Compound 8 Capsule or placebo on one occasion in the fasted state, except for subjects in Cohort SAD 3 who received two single doses on two separate occasions. Doses ranged from 10 mg to 160 mg. In Part 2 of the study, subjects received single doses of Compound 8 Capsule or placebo BID for 4 consecutive days and once on Day 5 in the fasted state. Doses ranged from 40 mg to 80 mg.
# [2] = Phase I study Part 2, multiple ascending doses (MAD), BID oral fasted; type: in vivo, human; conditions: for dose-proportionality of exposure from 40 mg to 80 mg (Cmax and AUC(0-tau)): Day 1, analyte = labelled substance; for Tmax at 5 days: read-out: median Tmax
# Excerpt: Part 2 of the study was a double-blind, randomized, placebo-controlled, MAD study.
# [3] = system: rat bilateral ischemia/reperfusion (IR) model; experiment: rat bilateral ischemia/reperfusion (IR) model, oral Compound 8 (iodide salt); type: in vivo, male Sprague Dawley rats; conditions: for urine β2-MG levels and content compared with Group 2 (IR): iodide salt
# Excerpt: Animal models of IRI (ischemia reperfusion injury), DGF (delayed graft function), and AKI (acute kidney injury) mimic many features seen in human kidney allografts. […] In 2011, the FDA held a workshop to review the current state of knowledge related to the effects of IRI on outcomes in kidney transplantation in animal models. The FDA stated animal models have implicated maladaptive host responses to […]. The maladaptive responses are changes in hemodynamics, decrease in oxygen tension, mitochondrial dysfunction, tubular injury, inflammation, etc.
# In the rat bilateral IR model, the bilateral renal pedicle was clamped for 45 min for ischemia and then the clamp is removed to allow reperfusion. […] Urine β2-MG levels and content of Group 2 were higher than those in Group 1. Compared with Group 2, Groups 3 and 4 had lower urine β2-MG levels and content (n=10/group) (FIG. 1; […] at 10 mg/kg dose and p<0.01 at 20 mg/kg dose—as per one-way ANOVA multiple comparison test).
# [4] = clinical; conditions: both, human, plasma, oral
# Description: as §1, §2, §3, §4
# [5] = system: unilateral IR model of AKI in rats; experiment: unilateral IR model of AKI in rats (kidney functional markers, tubular injury); type: in vivo, male SD (Sprague Dawley) rats; conditions: for BUN vs IR vehicle: p<0.0001 (FIG. 4); for serum creatinine: p<0.0001 (FIG. 9A)
# Description: A total of […] male SD (Sprague Dawley) rats were divided into 10 groups each with 10 rats/group as detailed in the Table 3. The ischemia was induced in the left kidney using a small clamp (Sugita standard aneurysm clip holding force 145 g) that was placed on the renal vascular pedicle for 30 min for all groups except SHAM group.
# All rats were housed in metabolic cages for the collection of 24-hour urine samples for ACR, NGAL and β2-MG levels. After 24 hours, rats were anaesthetized, and blood samples were collected for sCre, and BUN levels. The left kidney was collected and processed for histology for tubular injury scores.
# A total of additional 10 male SD (Sprague Dawley) rats were used along with the Group 1 (No IR) and Group 2 (IR); and other Groups listed in the Tabel 3; and conducted the study. The ischemia was induced in the left kidney of those additional 10 rats using a small clamp (Sugita standard aneurysm clip holding force 145 g) that was placed on the renal vascular pedicle for 30 min.
# Nicorandil at 10 mg/kg, was administered 30 minutes prior to the induction of ischemia via intraperitoneal (ip) administration to the additional 10 rats along with the groups listed in Table 3. All additional 10 rats were housed in metabolic cages for the collection of 24-hour urine samples for ACR. After 24 hours, rats were anaesthetized, and blood samples were collected for sCre. The left kidney was collected and processed for histology for tubular injury scores along with the other groups as detailed in Table 3.
# [6] = nicorandil 10 mg; cited from earlier work
# [7] = system: contrast induced nephropathy; conditions: 10 mg BID dosing; cited from earlier work
smiles,measurement,setting,value
"CC(NC(=O)OC[n+]1cccc(C(=O)NCCO[N+](=O)[O-])c1)C1CCCCC1 (stereo in doubt) [Compound 8, (S)-1-(((1-cyclohexylethylcarbamoyl)oxy)methyl)-3-((2-(nitroxy)ethyl)carbamoyl)pyridine-1-ium iodide]","dose proportionality of peak and overall exposure (Cmax, AUC(0-last))",[1]; 10 mg to 160 mg dose range,sub-proportional increase
same,dose-proportionality of exposure from 40 mg to 80 mg (Cmax and AUC(0-tau)),[2],approximate proportional increase
same,half-life at 5 day,"[2]; both sexes, human, plasma, oral, Day 5, both doses, reliable in 3 out of the 10 profiles, read-out: individual plasma half-life",1.11 to 1.42 h
same,Tmax at 5 days,"[2]; both sexes, human, plasma, multiple oral doses 40 mg for 5 days",1.5 h
same,Tmax at 5 days,"[2]; both sexes, human, plasma, multiple oral doses 80 mg for 5 days",1 h
same,physical or behavioral abnormalities vs vehicle,[3]; 10 and 20 mg/kg oral,no physical or behavioral abnormalities
same,significant changes in body weight vs vehicle,[3]; 10 and 20 mg/kg oral,no
same,uACR vs vehicle,[3]; 10 and 20 mg/kg oral,no significant difference
same,urine albumin concentration or total amount vs vehicle,[3]; 10 and 20 mg/kg oral,no significant difference
same,urine creatinine concentration or total amount vs vehicle,[3]; 10 and 20 mg/kg oral,no significant difference
same,creatinine marker of kidney function,[3]; doses up to 20 mg/kg oral,did not appear to have a significant impact
same,histological markers of kidney function (histological scores for tubular injury),[3]; doses up to 20 mg/kg oral,did not appear to have a significant impact
same,urine β2-MG levels and content compared with Group 2 (IR),"[3]; 10 mg/kg oral 1 hour prior to ischemia, p<0.5 (FIG. 1)",lower
same,urine β2-MG levels and content compared with Group 2 (IR),"[3]; 20 mg/kg oral 1 hour prior to ischemia, p<0.01 (FIG. 1)",lower
same,Tmax,[4],0.5 to 1.5 h
same,half-life,[4],0.74 to 2.58 h
same,AUC(0-t),[4]; 10 mg,> 0.127 ng·h/mL
same,Cmax,[4]; 10 mg,> 1.01 ng/mL
CC(N)C1CCCCC1 (stereo not shown) [1-cyclohexylethylamine],PK profiles,"[1]; after Compound 8 10 mg, 20 mg and 40 mg dose levels",entirely BLQ
same,subjects with quantifiable concentrations,[1]; after Compound 8 160 mg,all subjects
same,subjects with quantifiable concentrations,[2]; multiple oral dosing 40 mg or 80 mg Compound 8 for 5 days,all subjects
same,subjects with quantifiable concentrations,[2]; single dosing of Compound 8 Capsule 80 mg,all subjects
"C[C@@H](NC(=O)OC[n+]1cccc(C(=O)NCCO[N+](=O)[O-])c1)C1CCCCC1 [Compound 8, nitrate salt]",serum creatinine vs IR vehicle,"[5]; 5 mg/kg/iv single dose 30 min prior to ischemia, p<0.0001 (FIG. 2C)",phenomenally reduced
same,BUN vs IR vehicle,[5]; 5 mg/kg/iv single dose 30 min prior to ischemia,phenomenally reduced
same,urinary ACR vs IR vehicle,"[5]; 5 mg/kg/iv single dose 30 min prior to ischemia, p<0.001 (FIG. 3C)",phenomenally reduced
same,serum creatinine vs IR vehicle,"[5]; 10 mg/kg/iv single dose 30 min prior to ischemia, p<0.0001 (FIG. 2C)",phenomenally reduced
same,BUN vs IR vehicle,[5]; 10 mg/kg/iv single dose 30 min prior to ischemia,phenomenally reduced
same,urinary ACR vs IR vehicle,"[5]; 10 mg/kg/iv single dose 30 min prior to ischemia, p<0.001 (FIG. 3C)",phenomenally reduced
same,urinary ACR vs IR vehicle,"[5]; 25 mg/kg/ip single dose 30 min prior to ischemia, p<0.01 (FIG. 3B)",significantly reduced
same,urinary ACR vs IR vehicle,"[5]; 50 mg/kg/ip single dose 30 min prior to ischemia, p<0.001 (FIG. 3B)",significantly reduced
same,serum creatinine vs IR vehicle,"[5]; 50 mg/kg/ip single dose 30 min prior to ischemia, p<0.05 (FIG. 2B)",significantly reduced
same,urinary ACR vs IR vehicle,"[5]; 50 mg/kg/po single dose 30 min prior to ischemia, p<0.01 (FIG. 3A)",significantly reduced
same,urinary ACR vs IR vehicle,"[5]; 100 mg/kg/po single dose 30 min prior to ischemia, p<0.001 (FIG. 3A)",significantly reduced
same,serum creatinine vs IR vehicle,"[5]; 100 mg/kg/po single dose 30 min prior to ischemia, p<0.05 (FIG. 2A)",significantly reduced
same,proximal convoluted tubular injury scores,"[5]; intraperitoneal high dose 50 mg/kg, preventive, p<0.0001 (FIG. 6B)",effective in lowering
same,tubular injury marker β2-MG (urinary),"[5]; intraperitoneal low dose 25 mg/kg, preventive, p<0.01 (FIG. 8)",effective in lowering
same,"tubular injury/damage, histological images",[5]; intraperitoneal route (FIG. 7D),moderately ameliorated
same,tubular injury marker NGAL (urinary),"[5]; intravenous high dose 10 mg/kg, preventive, p<0.0001 (FIG. 5B)",robustly effective in lowering
same,proximal convoluted tubular injury scores,"[5]; intravenous high dose 10 mg/kg, preventive, p<0.0001 (FIG. 6C)",robustly effective in lowering
same,tubular injury marker NGAL (urinary),"[5]; intravenous low dose 5 mg/kg, preventive, p<0.0001 (FIG. 5B)",robustly effective in lowering
same,proximal convoluted tubular injury scores,"[5]; intravenous low dose 5 mg/kg, preventive, p<0.0001 (FIG. 6C)",robustly effective in lowering
same,"tubular injury/damage, histology","[5]; intravenous route, low and high doses (FIG. 6C, 7E)",markedly ameliorated
same,tubular injury marker NGAL (urinary),"[5]; oral high dose 100 mg/kg, preventive, p<0.0001 (FIG. 5A)",effective in lowering
same,proximal convoluted tubular injury scores/damage,"[5]; oral high dose 100 mg/kg, preventive, p<0.0001 (FIG. 6A)",effective in lowering
same,tubular injury marker NGAL (urinary),"[5]; oral low dose 50 mg/kg, preventive, p<0.0001 (FIG. 5A)",effective in lowering
same,"tubular injury/damage, histological images",[5]; oral route (FIG. 7C),moderately ameliorated
same,BUN,"[5]; therapeutic regimen, 10 mg/kg/iv at 1 hour, p<0.001 (FIG. 9B)",phenomenally reduced
same,BUN,"[5]; therapeutic regimen, 10 mg/kg/iv at 4 hours, p<0.0001 (FIG. 9B)",phenomenally reduced
same,urinary NGAL,"[5]; therapeutic regimen, 10 mg/kg/iv at 4 hours, p<0.01 (FIG. 9C)",phenomenally reduced
same,serum creatinine,"[5]; therapeutic regimen, 10 mg/kg/iv single dose at 1 hour after ischemia",phenomenally reduced
same,serum creatinine,"[5]; therapeutic regimen, 10 mg/kg/iv single dose at 4 hours after ischemia",phenomenally reduced
"O=C(NCCO[N+](=O)[O-])c1cccnc1 [Nicorandil, reference compound]",dose proportionality of peak (20-160 mg) and total (40-160 mg) exposure,"[1]; nicorandil after Compound 8, Cmax and AUC(0-last)",slightly greater than proportional
same,AUC,[6],101 (range of 122-323) hour·ng/m
same,Cmax,[6],107 (range of 44-148) ng/mL
same,Tmax,[6],0.43 (range 0.25-0.75) hours
same,activity in contrast induced nephropathy,[7],show activity
same,dose-proportionality of exposure from 40 mg to 80 mg (Cmax and AUC(0-tau)),[2],proportional increase
same,"proximal tubules, histological images",[5]; 10 mg/kg ip (FIG. 10D),most all proximal tubules are healthy
same,serum creatinine compared to Group 2,"[5]; 10 mg/kg ip single dose 30 min prior to ischemia, p<0.0001 (FIG. 10A)",significantly reduced
same,ACR compared to Group 2,"[5]; 10 mg/kg ip single dose 30 min prior to ischemia, p<0.0001 (FIG. 10B)",significantly reduced
same,tubular injury/damage compared to Group 2,"[5]; 10 mg/kg ip single dose 30 min prior to ischemia, p<0.0001 (FIG. 10C)",significantly reduced
